Earlier results on one compound are cited in patent US5463127A, “Process for preparation of halohydroxypropyl-trialkylammonium halides” (The Dow Chemical Company, priority 1995, dated 1995).

Like-named read-outs stand apart in the source and are kept apart here.

For this data set the following is noted: aqueous solution.

Regarding `CN(C)C` [Trimethylamine, trimethylamine], the “pKa of Trimethylamine” value reads like this: (0 °C.) 10.355; (10 °C.) 10.128; (20 °C.) 9.907; (30 °C.) 9.692; (40 °C.) 9.477; (50 °C.) 9.270.
